Measurements from patent US5216001A, “Indole derivatives” (H. Lunbeck A/S, priority 1990, dated 1993).

Target: T1, serotonin S2 (5-HT2) receptors (Rattus norvegicus, UniProt P14842)
T1 construct: cortical tissue is dissected and weighed; from tissue; host or cells: cerebral cortex membranes of male Wistar (Mol:Wist) rats
Assay: inhibition of 3H-ketanserin binding to serotonin S2 (5-HT2) receptors in rat cortex in vitro
Settings: 3H-ketanserin 0.5 nM, rat cortex membranes, read-out: Binding IC50, 3H Ket.
Method: Method in Hyttel, Pharmacology & Toxicology, 61, 126-129. 1987.
Male Wistar (Mol:Wist) rats (125-250 g) are sacrifices and cortical tissue is dissected and weighed. The tissue is homogenized (Ultra Turrax, 10 sec.) in 10 ml of ice-cold 50 mM tris buffer pH 7.7 (at 25° C.). The centrifuge glassware used in this step has been rinsed by sonication for 10 min. in ethanol. The homogenate is centrifuged twice at 20,000 g for 10 min. at 4° C. with rehomogenization of the pellet in 10 ml ice-cold buffer. The final pellet is homogenized in 500 vol (w/v) ice-cold buffer.
Incubation tubes kept on ice in triplicate receive 100 μl of drug solution in water (or water for total binding) and 2000 μl of tissue suspension (final tissue content corresponds to 4 mg original tissue). […] After incubation for 30 min. the samples are filtered under vacuum (0-50 mBar) through Whatman GF/F filters (25 mm). The tubes are rinsed with 5 ml ice-cold buffer which are then poured on the filters. Thereafter, the filters are washed with 2×5 ml of buffer. The filters are placed in counting vials and 4 ml of appropriate scintillation fluid (e.g., Picofluor™15) are added. After shaking for 1 h and storage 2 hrs in the dark the content of radioactivity is determined by liquid scintillation counting. Specific binding is obtained by subtracting the nonspecific binding in the presence of 1 μM mianserin. For determination of the inhibition of binding five concentrations of drugs covering 3 decades are used.
The IC50 value is determined as the concentration at which the binding is 50% of the total binding in control samples minus the nonspecific binding in the presence of 1 μM mianserin.

T1 sequence (P14842 whole entry): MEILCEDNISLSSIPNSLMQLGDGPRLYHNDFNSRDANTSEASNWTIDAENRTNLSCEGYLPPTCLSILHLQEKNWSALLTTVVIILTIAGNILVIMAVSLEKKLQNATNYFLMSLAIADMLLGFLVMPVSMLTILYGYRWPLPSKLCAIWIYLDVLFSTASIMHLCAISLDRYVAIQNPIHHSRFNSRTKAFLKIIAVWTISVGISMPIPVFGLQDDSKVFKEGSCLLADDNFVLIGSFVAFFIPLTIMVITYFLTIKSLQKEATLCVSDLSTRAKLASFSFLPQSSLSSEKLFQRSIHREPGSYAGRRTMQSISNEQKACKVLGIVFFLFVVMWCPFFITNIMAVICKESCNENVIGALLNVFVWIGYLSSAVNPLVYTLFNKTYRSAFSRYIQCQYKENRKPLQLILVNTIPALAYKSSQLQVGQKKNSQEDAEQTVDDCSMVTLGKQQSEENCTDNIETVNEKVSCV

| SMILES | IC50 [nM] |
| --- | --- |
| O=C1NCCN1CCN1CCC(c2cn(-c3ccc(F)cc3)c3cc(C(F)(F)F)ccc23)CC1 [Compound 4d, 1-(4-fluorophenyl)-3-[1-[2-(2-imidazolidinon-1-yl)ethyl]-4-piperidyl]-6-trifluoromethyl-1H-indole] | 1.7 |
| OCCN1CCC(c2cn(-c3ccc(F)cc3)c3cc(Cl)ccc23)CC1 [Compound 4f, 6-chloro-1-(4-fluorophenyl)-3-[1-(2-hydroxyethyl)-4-piperidyl]-1H-indole] | 11 |
| O=C1NCCN1CCN1CCC(c2cn(-c3ccc(F)cc3)c3cc(Br)ccc23)CC1 [Compound 4h, 6-bromo-1-(4-fluorophenyl)-3-[1-[2-(2-imidazolidinon-1-yl)ethyl-]-4-piperidyl]-1H-indole] | 1.8 |
| CC(C)N1CCN(CCN2CCC(c3cn(-c4ccc(F)cc4)c4cc(Br)ccc34)CC2)C1=O [Compound 5b, 6-bromo-1-(4-fluorophenyl)-3-[1-[2-[3-(2-propyl)-2-imidazolidinon-1-yl]ethyl]-4-piperidyl]-1H-indole] | 2 |
| CC(C)c1ccc2c(C3CCN(CCN4CCNC4=O)CC3)cn(-c3ccc(F)cc3)c2c1 [Compound 5d, 1-(4-fluorophenyl)-6-(2-propyl)-3-[1-[2-(2-imidazolidinon-1-yl)ethyl]-4-piperidyl]-1H-indole] | 18 |
| CC(C)N1CCN(CCN2CCC(c3cn(-c4ccc(F)cc4)c4cc(Cl)c(Cl)cc34)CC2)C1=O [Compound 5e, 5,6-dichloro-1-(4-fluorophenyl)-3-[1-[2-[3-(2-propyl)-2-imidazolidinon-1-yl]ethyl]-4-piperidyl]-1H-indole] | 3.4 |
| CC(C)N1CCN(CCN2CCC(c3cn(-c4ccc(F)cc4)c4cc5c(cc34)CCC5)CC2)C1=O [Compound 5g, 1-(4-fluorophenyl)-3-[1-[2-[3-(2-propyl)-2-imidazolidinon-1-yl]ethyl]-4-piperidyl]-1,5,6,7-tetrahydrocyclopent[f]-1H-indole] | 3.2 |
| O=C1NCCN1CCN1CCC(c2cn(-c3ccc(F)cc3)c3cc4c(cc23)CCC4)CC1 [Compound 5h, 1-(4-fluorophenyl)-3-[1-[2-(2-imidazolidinon-1-yl)ethyl]-4-piperidyl]-1,5,6,7-tetrahydrocyclopent[f]-1H-indole] | 1.2 |
| CNC(=S)NCCN1CCC(c2cn(-c3ccc(F)cc3)c3cc(Cl)ccc23)CC1 [Compound 9c, 6-chloro-1-(4-fluorophenyl)-3-[1-[2-(3-methyl-1-thioureido)-1-ethyl]-4-piperidyl]-1H-indole] | 12 |
| CCN(CCN1CCC(c2cn(-c3ccc(F)cc3)c3cc(Cl)ccc23)CC1)C(=O)N(C)C [Compound 9e, 6-chloro-3-[1-[2-(3,3-dimethyl-1-ethyl-1-ureido)-1-ethyl]-4-piperidyl]-1-(4-fluorophenyl)-1H-indole] | 6.4 |
| CN(C)C(=S)NCCN1CCC(c2cn(-c3ccc(F)cc3)c3cc(Cl)ccc23)CC1 [Compound 9f] | 2.5 |
| CC(C)N(C)C(=O)NCCN1CCC(c2cn(-c3ccc(F)cc3)c3cc(Cl)ccc23)CC1 [Compound 9g, 6-chloro-1-(4-fluorophenyl)-3-[1-[2-[3-methyl-3-(2-propyl)-1-ureido]-1-ethyl]-4-piperidyl]-1H-indole] | 6.2 |
| CNC(=O)N(C)CCN1CCC(c2cn(-c3ccc(F)cc3)c3cc(Cl)ccc23)CC1 [Compound 9h, 6-chloro-1-(4-fluorophenyl)-3-[1-[2-(1,3-dimethyl-1-ureido)-1-ethyl]-4-piperidyl]-1H-indole] | 1.6 |
| CC(C)NC(=O)N(C)CCN1CCC(c2cn(-c3ccc(F)cc3)c3cc(Cl)ccc23)CC1 [Compound 9i, 6-chloro-1-(4-fluorophenyl)-3-[1-[2-(1-methyl-3-(2-propyl)-1-ureido)-1-ethyl]-4-piperidyl]-1H-indole] | 2.2 |
| CC(=O)NCCN1CCC(c2cn(-c3ccc(F)cc3)c3cc(Cl)ccc23)CC1 [Compound 9j] | 11 |
| CCOC(=O)NCCN1CCC(c2cn(-c3ccc(F)cc3)c3cc(Cl)ccc23)CC1 [Compound 9k] | 4 |
